Measured values from patent US11697648B2, “Fused pyrimidine pyridinone compounds as JAK inhibitors” (THERAVANCE BIOPHARMA R&D IP, LLC, priority 2019, dated 2023).

The compounds below were run against JAK1 (Homo sapiens (Human), UniProt P23458) (assay: Biochemical JAK1 kinase assay (LanthaScreen)). Details: not given.
Method in brief: (§1)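 GST-JAK + GFP-STAT1 peptide, HEPES pH 7.5/MgCl2/EGTA/Brij-35 buffer; cpd preincubation 1 h RT; ATP start, 1 h RT; stop with 10 mM EDTA + 2 nM Tb-anti-pSTAT1; TR-FRET 520/495. 4-parameter IC50 → pKi (Cheng-Prusoff).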

JAK1, sequence (P23458 whole entry): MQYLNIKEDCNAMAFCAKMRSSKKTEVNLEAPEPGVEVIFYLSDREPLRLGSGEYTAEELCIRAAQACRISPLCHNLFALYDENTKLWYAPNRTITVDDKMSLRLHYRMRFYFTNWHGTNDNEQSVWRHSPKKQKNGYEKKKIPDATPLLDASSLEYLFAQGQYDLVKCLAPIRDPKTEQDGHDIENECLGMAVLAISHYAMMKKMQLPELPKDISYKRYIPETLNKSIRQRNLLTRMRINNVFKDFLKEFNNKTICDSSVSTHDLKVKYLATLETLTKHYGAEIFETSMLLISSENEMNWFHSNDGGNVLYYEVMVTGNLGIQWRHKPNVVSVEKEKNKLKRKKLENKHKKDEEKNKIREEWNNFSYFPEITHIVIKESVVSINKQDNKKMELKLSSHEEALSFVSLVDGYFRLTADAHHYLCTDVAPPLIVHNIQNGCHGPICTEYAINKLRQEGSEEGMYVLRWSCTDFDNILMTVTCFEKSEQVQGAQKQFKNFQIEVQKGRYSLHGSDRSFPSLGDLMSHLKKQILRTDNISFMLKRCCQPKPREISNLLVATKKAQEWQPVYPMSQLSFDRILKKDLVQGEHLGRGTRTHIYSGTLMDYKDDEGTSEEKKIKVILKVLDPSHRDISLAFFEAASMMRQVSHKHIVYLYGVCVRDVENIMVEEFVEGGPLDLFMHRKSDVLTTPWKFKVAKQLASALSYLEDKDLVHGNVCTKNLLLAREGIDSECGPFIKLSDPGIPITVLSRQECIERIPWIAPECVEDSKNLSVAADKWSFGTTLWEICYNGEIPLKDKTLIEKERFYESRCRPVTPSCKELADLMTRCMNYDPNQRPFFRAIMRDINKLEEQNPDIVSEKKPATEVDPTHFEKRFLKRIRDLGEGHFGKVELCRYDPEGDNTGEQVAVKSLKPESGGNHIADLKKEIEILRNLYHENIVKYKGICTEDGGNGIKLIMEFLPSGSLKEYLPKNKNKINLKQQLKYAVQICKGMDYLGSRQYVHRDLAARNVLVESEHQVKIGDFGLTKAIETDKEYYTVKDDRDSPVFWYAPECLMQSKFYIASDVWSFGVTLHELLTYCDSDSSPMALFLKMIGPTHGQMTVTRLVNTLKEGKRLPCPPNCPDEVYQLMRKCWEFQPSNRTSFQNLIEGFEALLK

With C=CC(=O)N1CC(CCn2c(=O)ccc3cnc(Nc4ccc(N5CCN(CC)CC5)cc4)nc32)C1 [Example 114] as the compound, how does the “JAK 1 (pKi)” value read?
The value was “E (E represents a pKi value of 7 or below (Ki of 100 nM or above))”.

C=CC(=O)N1CC(CCn2c(=O)ccc3cnc(Nc4ccc(N5CCN(C(C)CC)CC5)cc4)nc32)C1 (stereo not drawn) [Example 115] was tested. Which “JAK 1 (pKi)” value did it give?
The value was “E (E represents a pKi value of 7 or below (Ki of 100 nM or above))”.

C=CC(=O)N1CC(CCn2c(=O)ccc3cnc(Nc4ccc(N5CCN(CCC6CCCCC6)CC5)cc4)nc32)C1 [Example 116] was tested. Which “JAK 1 (pKi)” value did it give?
The value was “E (E represents a pKi value of 7 or below (Ki of 100 nM or above))”.

Which “JAK 1 (pKi)” value does the source give for C=CC(=O)N1CC(CCn2c(=O)ccc3cnc(Nc4ccc(N5CCN(C6CC6)CC5)cc4)nc32)C1 [Example 118] here?
Its value is “E (E represents a pKi value of 7 or below (Ki of 100 nM or above))”.

For C=CC(=O)N1CC(CCn2c(=O)ccc3cnc(Nc4ccc(N5CCN(CC(F)(F)F)CC5)cc4)nc32)C1 [Example 119], which “JAK 1 (pKi)” value is on record?
Its value is “E (E represents a pKi value of 7 or below (Ki of 100 nM or above))”.

For C=CC(=O)N1CC(CCn2c(=O)ccc3cnc(Nc4ccc(N5CCN(C(C)C)CC5)cc4)nc32)C1 [Example 120], which “JAK 1 (pKi)” value is on record?
The value was “E (E represents a pKi value of 7 or below (Ki of 100 nM or above))”.

With C=CC(=O)N1C[C@H](C)N(CCn2c(=O)ccc3cnc(Nc4cnn(C)c4)nc32)C[C@@H]1C [Example 121] as the compound, how does the “JAK 1 (pKi)” value read?
Its value is “E (E represents a pKi value of 7 or below (Ki of 100 nM or above))”.

Each compound was assayed against JAK2 (Homo sapiens (Human), UniProt O60674) (assay: Biochemical JAK2 kinase assay (LanthaScreen)). Details: not given.
Method in brief: as §1

JAK2, sequence (O60674 whole entry): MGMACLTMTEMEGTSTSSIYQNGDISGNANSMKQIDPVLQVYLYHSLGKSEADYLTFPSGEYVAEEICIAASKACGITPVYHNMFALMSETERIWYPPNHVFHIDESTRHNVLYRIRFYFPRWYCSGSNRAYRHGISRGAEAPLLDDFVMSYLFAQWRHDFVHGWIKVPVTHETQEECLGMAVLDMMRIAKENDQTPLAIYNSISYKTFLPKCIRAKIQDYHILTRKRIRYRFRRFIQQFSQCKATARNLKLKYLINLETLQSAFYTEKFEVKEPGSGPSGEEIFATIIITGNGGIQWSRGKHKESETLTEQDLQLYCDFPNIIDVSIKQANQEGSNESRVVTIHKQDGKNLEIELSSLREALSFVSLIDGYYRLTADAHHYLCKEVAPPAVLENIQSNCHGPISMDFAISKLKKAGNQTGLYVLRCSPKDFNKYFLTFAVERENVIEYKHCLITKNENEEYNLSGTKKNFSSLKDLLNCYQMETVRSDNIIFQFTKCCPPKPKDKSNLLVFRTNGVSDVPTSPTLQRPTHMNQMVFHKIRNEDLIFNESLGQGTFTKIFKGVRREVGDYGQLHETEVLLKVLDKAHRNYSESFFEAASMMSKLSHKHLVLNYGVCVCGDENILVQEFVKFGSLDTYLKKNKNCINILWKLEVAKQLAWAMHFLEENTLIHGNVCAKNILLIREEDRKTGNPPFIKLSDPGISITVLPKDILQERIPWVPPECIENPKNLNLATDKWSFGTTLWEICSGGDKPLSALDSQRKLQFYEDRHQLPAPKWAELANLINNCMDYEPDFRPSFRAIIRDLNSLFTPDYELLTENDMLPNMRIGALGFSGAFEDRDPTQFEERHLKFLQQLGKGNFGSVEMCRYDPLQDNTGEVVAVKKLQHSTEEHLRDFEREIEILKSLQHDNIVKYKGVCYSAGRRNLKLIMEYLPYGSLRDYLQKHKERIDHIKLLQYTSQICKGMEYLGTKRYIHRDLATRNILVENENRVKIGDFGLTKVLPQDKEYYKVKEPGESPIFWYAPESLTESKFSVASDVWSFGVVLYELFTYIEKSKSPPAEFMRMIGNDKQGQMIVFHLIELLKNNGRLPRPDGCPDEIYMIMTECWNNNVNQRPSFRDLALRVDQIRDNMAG

Which “JAK 2 (pKi)” value does the source give for C=CC(=O)N1CC(CCn2c(=O)ccc3cnc(Nc4ccc(N5CCN(CC)CC5)cc4)nc32)C1 [Example 114] here?
Its value is “E (E represents a pKi value of 7 or below (Ki of 100 nM or above))”.

C=CC(=O)N1CC(CCn2c(=O)ccc3cnc(Nc4ccc(N5CCN(C(C)CC)CC5)cc4)nc32)C1 (stereo not drawn) [Example 115] was tested. Which “JAK 2 (pKi)” value did it give?
The value was “E (E represents a pKi value of 7 or below (Ki of 100 nM or above))”.

How did the “JAK 2 (pKi)” value turn out when C=CC(=O)N1CC(CCn2c(=O)ccc3cnc(Nc4ccc(N5CCN(CCC6CCCCC6)CC5)cc4)nc32)C1 [Example 116] was run?
The value was “E (E represents a pKi value of 7 or below (Ki of 100 nM or above))”.

With C=CC(=O)N1CC(CCn2c(=O)ccc3cnc(Nc4ccc(N5CCN(C6CC6)CC5)cc4)nc32)C1 [Example 118] as the compound, how does the “JAK 2 (pKi)” value read?
The value was “E (E represents a pKi value of 7 or below (Ki of 100 nM or above))”.

For C=CC(=O)N1CC(CCn2c(=O)ccc3cnc(Nc4ccc(N5CCN(CC(F)(F)F)CC5)cc4)nc32)C1 [Example 119], which “JAK 2 (pKi)” value is on record?
Its value is “E (E represents a pKi value of 7 or below (Ki of 100 nM or above))”.

How did the “JAK 2 (pKi)” value turn out when C=CC(=O)N1CC(CCn2c(=O)ccc3cnc(Nc4ccc(N5CCN(C(C)C)CC5)cc4)nc32)C1 [Example 120] was run?
Its value is “E (E represents a pKi value of 7 or below (Ki of 100 nM or above))”.

For C=CC(=O)N1C[C@H](C)N(CCn2c(=O)ccc3cnc(Nc4cnn(C)c4)nc32)C[C@@H]1C [Example 121], which “JAK 2 (pKi)” value is on record?
Its value is “E (E represents a pKi value of 7 or below (Ki of 100 nM or above))”.

The compounds below were run against JAK3 (Homo sapiens (Human), UniProt P52333) (assay: Biochemical JAK3 kinase assay (LanthaScreen)). Details: not given.
Method in brief: as §1

JAK3, sequence (P52333 whole entry): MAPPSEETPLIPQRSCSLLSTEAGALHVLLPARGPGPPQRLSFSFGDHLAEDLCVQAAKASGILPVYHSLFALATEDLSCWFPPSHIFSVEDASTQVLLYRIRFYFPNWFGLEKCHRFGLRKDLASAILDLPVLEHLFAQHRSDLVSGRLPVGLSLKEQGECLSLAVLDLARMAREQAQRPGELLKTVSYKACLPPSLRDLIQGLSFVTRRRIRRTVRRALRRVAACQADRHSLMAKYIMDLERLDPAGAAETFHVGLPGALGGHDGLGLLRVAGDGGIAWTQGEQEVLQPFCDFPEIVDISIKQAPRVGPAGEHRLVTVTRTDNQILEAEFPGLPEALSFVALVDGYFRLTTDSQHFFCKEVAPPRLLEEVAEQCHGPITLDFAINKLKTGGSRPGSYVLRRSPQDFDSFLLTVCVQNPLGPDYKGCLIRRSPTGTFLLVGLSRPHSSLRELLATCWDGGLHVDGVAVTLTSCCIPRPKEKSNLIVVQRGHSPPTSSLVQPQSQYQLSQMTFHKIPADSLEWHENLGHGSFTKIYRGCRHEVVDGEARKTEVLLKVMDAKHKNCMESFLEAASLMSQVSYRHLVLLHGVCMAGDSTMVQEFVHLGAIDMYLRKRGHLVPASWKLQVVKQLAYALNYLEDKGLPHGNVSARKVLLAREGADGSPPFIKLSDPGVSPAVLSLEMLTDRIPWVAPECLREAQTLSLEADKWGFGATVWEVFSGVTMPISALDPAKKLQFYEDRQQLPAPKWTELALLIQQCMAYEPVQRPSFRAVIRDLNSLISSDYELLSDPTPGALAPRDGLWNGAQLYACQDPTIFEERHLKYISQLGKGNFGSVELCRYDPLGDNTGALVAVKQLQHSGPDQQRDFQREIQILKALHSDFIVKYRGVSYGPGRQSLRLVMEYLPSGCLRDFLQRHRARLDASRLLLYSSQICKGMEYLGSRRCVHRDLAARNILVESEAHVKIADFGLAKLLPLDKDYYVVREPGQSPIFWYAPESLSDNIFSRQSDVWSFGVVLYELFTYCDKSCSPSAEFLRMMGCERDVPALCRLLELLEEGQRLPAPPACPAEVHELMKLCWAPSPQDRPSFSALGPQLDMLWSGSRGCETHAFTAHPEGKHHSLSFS

C=CC(=O)N1CC(CCn2c(=O)ccc3cnc(Nc4ccc(N5CCN(CC)CC5)cc4)nc32)C1 [Example 114] was tested. Which “JAK 3 (pKi)” value did it give?
Its value is “A (A represents a pKi value≥10 (Ki≤0.1 nM))”.

Which “JAK 3 (pKi)” value does the source give for C=CC(=O)N1CC(CCn2c(=O)ccc3cnc(Nc4ccc(N5CCN(C(C)CC)CC5)cc4)nc32)C1 (stereo not drawn) [Example 115] here?
The value was “B (B represents pKi value between 9 and 10 (Ki between 1 nM and 0.1 nM))”.

C=CC(=O)N1CC(CCn2c(=O)ccc3cnc(Nc4ccc(N5CCN(CCC6CCCCC6)CC5)cc4)nc32)C1 [Example 116] was tested. Which “JAK 3 (pKi)” value did it give?
The value was “B (B represents pKi value between 9 and 10 (Ki between 1 nM and 0.1 nM))”.

With C=CC(=O)N1CC(CCn2c(=O)ccc3cnc(Nc4ccc(N5CCN(C6CC6)CC5)cc4)nc32)C1 [Example 118] as the compound, how does the “JAK 3 (pKi)” value read?
Its value is “B (B represents pKi value between 9 and 10 (Ki between 1 nM and 0.1 nM))”.

For C=CC(=O)N1CC(CCn2c(=O)ccc3cnc(Nc4ccc(N5CCN(CC(F)(F)F)CC5)cc4)nc32)C1 [Example 119], which “JAK 3 (pKi)” value is on record?
The value was “A (A represents a pKi value≥10 (Ki≤0.1 nM))”.

How did the “JAK 3 (pKi)” value turn out when C=CC(=O)N1CC(CCn2c(=O)ccc3cnc(Nc4ccc(N5CCN(C(C)C)CC5)cc4)nc32)C1 [Example 120] was run?
The value was “B (B represents pKi value between 9 and 10 (Ki between 1 nM and 0.1 nM))”.

With C=CC(=O)N1C[C@H](C)N(CCn2c(=O)ccc3cnc(Nc4cnn(C)c4)nc32)C[C@@H]1C [Example 121] as the compound, how does the “JAK 3 (pKi)” value read?
The value was “B (B represents pKi value between 9 and 10 (Ki between 1 nM and 0.1 nM))”.

Same assay, conditions: selectivity JAK3 over JAK1, difference of pKi

Which “JAK3 (pKi)-JAK1 (pKi)” value does the source give for C=CC(=O)N1CC(CCn2c(=O)ccc3cnc(Nc4ccc(N5CCN(CC)CC5)cc4)nc32)C1 [Example 114] here?
Its value is “A (A represents a value of 3 or above)”.

With C=CC(=O)N1CC(CCn2c(=O)ccc3cnc(Nc4ccc(N5CCN(C(C)CC)CC5)cc4)nc32)C1 (stereo not drawn) [Example 115] as the compound, how does the “JAK3 (pKi)-JAK1 (pKi)” value read?
The value was “A (A represents a value of 3 or above)”.

C=CC(=O)N1CC(CCn2c(=O)ccc3cnc(Nc4ccc(N5CCN(CCC6CCCCC6)CC5)cc4)nc32)C1 [Example 116] was tested. Which “JAK3 (pKi)-JAK1 (pKi)” value did it give?
The value was “B (B represents a value of 2.5 to 3)”.

How did the “JAK3 (pKi)-JAK1 (pKi)” value turn out when C=CC(=O)N1CC(CCn2c(=O)ccc3cnc(Nc4ccc(N5CCN(C6CC6)CC5)cc4)nc32)C1 [Example 118] was run?
The value was “A (A represents a value of 3 or above)”.

Which “JAK3 (pKi)-JAK1 (pKi)” value does the source give for C=CC(=O)N1CC(CCn2c(=O)ccc3cnc(Nc4ccc(N5CCN(CC(F)(F)F)CC5)cc4)nc32)C1 [Example 119] here?
Its value is “A (A represents a value of 3 or above)”.

C=CC(=O)N1CC(CCn2c(=O)ccc3cnc(Nc4ccc(N5CCN(C(C)C)CC5)cc4)nc32)C1 [Example 120] was tested. Which “JAK3 (pKi)-JAK1 (pKi)” value did it give?
The value was “A (A represents a value of 3 or above)”.

C=CC(=O)N1C[C@H](C)N(CCn2c(=O)ccc3cnc(Nc4cnn(C)c4)nc32)C[C@@H]1C [Example 121] was tested. Which “JAK3 (pKi)-JAK1 (pKi)” value did it give?
The value was “B (B represents a value of 2.5 to 3)”.

What follows are compounds tested against Tyk2 (Homo sapiens (Human), UniProt P29597) (assay: Biochemical Tyk2 kinase assay (LanthaScreen)). Details: not given.
Method in brief: as §1

Tyk2, sequence (P29597 whole entry): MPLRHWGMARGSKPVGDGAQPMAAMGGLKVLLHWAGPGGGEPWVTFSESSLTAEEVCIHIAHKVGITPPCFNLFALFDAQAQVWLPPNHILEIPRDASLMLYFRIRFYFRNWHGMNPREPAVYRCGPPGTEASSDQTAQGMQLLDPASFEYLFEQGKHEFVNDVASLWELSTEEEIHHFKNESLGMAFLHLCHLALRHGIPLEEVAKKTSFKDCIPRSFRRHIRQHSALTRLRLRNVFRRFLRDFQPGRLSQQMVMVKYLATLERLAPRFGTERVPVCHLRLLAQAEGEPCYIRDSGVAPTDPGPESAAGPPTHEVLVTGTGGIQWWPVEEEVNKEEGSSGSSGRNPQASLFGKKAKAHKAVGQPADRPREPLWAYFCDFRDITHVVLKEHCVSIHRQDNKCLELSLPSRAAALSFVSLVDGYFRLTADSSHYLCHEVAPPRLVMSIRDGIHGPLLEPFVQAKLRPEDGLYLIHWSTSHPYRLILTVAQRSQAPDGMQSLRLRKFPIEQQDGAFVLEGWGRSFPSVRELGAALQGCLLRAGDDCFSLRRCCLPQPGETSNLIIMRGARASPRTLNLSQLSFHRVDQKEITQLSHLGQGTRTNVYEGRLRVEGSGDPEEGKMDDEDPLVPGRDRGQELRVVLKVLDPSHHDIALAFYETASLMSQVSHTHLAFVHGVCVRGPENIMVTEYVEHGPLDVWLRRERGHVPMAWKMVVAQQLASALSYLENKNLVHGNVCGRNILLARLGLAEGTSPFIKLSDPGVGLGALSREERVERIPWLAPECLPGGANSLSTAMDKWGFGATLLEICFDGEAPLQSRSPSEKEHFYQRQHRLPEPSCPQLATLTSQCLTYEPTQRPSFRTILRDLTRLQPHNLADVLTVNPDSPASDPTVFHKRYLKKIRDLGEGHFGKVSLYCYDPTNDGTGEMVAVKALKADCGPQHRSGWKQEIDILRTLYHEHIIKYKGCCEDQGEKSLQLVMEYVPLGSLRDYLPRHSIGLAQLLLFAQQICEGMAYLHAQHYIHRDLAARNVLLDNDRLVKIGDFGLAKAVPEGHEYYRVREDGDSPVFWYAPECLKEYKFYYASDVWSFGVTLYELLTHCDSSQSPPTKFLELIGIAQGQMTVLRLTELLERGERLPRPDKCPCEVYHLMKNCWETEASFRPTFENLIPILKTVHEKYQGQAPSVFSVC

For C=CC(=O)N1CC(CCn2c(=O)ccc3cnc(Nc4ccc(N5CCN(CC)CC5)cc4)nc32)C1 [Example 114], which “Tyk 2 (pKi)” value is on record?
The value was “E (E represents a pKi value of 7 or below (Ki of 100 nM or above))”.

Which “Tyk 2 (pKi)” value does the source give for C=CC(=O)N1CC(CCn2c(=O)ccc3cnc(Nc4ccc(N5CCN(C(C)CC)CC5)cc4)nc32)C1 (stereo not drawn) [Example 115] here?
Its value is “E (E represents a pKi value of 7 or below (Ki of 100 nM or above))”.

For C=CC(=O)N1CC(CCn2c(=O)ccc3cnc(Nc4ccc(N5CCN(CCC6CCCCC6)CC5)cc4)nc32)C1 [Example 116], which “Tyk 2 (pKi)” value is on record?
Its value is “E (E represents a pKi value of 7 or below (Ki of 100 nM or above))”.

Which “Tyk 2 (pKi)” value does the source give for C=CC(=O)N1CC(CCn2c(=O)ccc3cnc(Nc4ccc(N5CCN(C6CC6)CC5)cc4)nc32)C1 [Example 118] here?
The value was “E (E represents a pKi value of 7 or below (Ki of 100 nM or above))”.

For C=CC(=O)N1CC(CCn2c(=O)ccc3cnc(Nc4ccc(N5CCN(CC(F)(F)F)CC5)cc4)nc32)C1 [Example 119], which “Tyk 2 (pKi)” value is on record?
Its value is “E (E represents a pKi value of 7 or below (Ki of 100 nM or above))”.

C=CC(=O)N1CC(CCn2c(=O)ccc3cnc(Nc4ccc(N5CCN(C(C)C)CC5)cc4)nc32)C1 [Example 120] was tested. Which “Tyk 2 (pKi)” value did it give?
The value was “E (E represents a pKi value of 7 or below (Ki of 100 nM or above))”.

Which “Tyk 2 (pKi)” value does the source give for C=CC(=O)N1C[C@H](C)N(CCn2c(=O)ccc3cnc(Nc4cnn(C)c4)nc32)C[C@@H]1C [Example 121] here?
Its value is “E (E represents a pKi value of 7 or below (Ki of 100 nM or above))”.

Each compound was assayed on IL-2 stimulated STAT5 phosphorylation in Tall-1 human T cell line (JAK3) (assay: Cellular JAK3 potency assay: inhibition of IL-2 stimulated pSTAT5 in Tall-1 T cells). Details: IL-2 stimulated pSTAT5, Tall-1 T cells.
Type: cell-based
Method in brief: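 AlphaLISA SureFire Ultra measures STAT5 Tyr694/699 phosphorylation in lysed Tall-1 human T cells. Cells were exposed to compound for 1 h at 37 °C before a 30 min IL-2 challenge (300 ng/ml final). Values are pIC50 means with standard deviation from signal-versus-concentration curves.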

With C=CC(=O)N1CC(CCn2c(=O)ccc3cnc(Nc4ccc(N5CCN(CC)CC5)cc4)nc32)C1 [Example 114] as the compound, how does the “Tall-1 (pIC50)” value read?
Its value is “A (A represents a pIC50 value≥7.5 (IC50≤32 nM))”.

How did the “Tall-1 (pIC50)” value turn out when C=CC(=O)N1CC(CCn2c(=O)ccc3cnc(Nc4ccc(N5CCN(C(C)CC)CC5)cc4)nc32)C1 (stereo not drawn) [Example 115] was run?
The value was “A (A represents a pIC50 value≥7.5 (IC50≤32 nM))”.

How did the “Tall-1 (pIC50)” value turn out when C=CC(=O)N1CC(CCn2c(=O)ccc3cnc(Nc4ccc(N5CCN(CCC6CCCCC6)CC5)cc4)nc32)C1 [Example 116] was run?
Its value is “B (B represents a pC50 value between 6.7 (included) and 7.5 (IC50 between 200 nM and 32 nM))”.

How did the “Tall-1 (pIC50)” value turn out when C=CC(=O)N1CC(CCn2c(=O)ccc3cnc(Nc4ccc(N5CCN(C6CC6)CC5)cc4)nc32)C1 [Example 118] was run?
The value was “B (B represents a pC50 value between 6.7 (included) and 7.5 (IC50 between 200 nM and 32 nM))”.

C=CC(=O)N1CC(CCn2c(=O)ccc3cnc(Nc4ccc(N5CCN(CC(F)(F)F)CC5)cc4)nc32)C1 [Example 119] was tested. Which “Tall-1 (pIC50)” value did it give?
The value was “B (B represents a pC50 value between 6.7 (included) and 7.5 (IC50 between 200 nM and 32 nM))”.

C=CC(=O)N1CC(CCn2c(=O)ccc3cnc(Nc4ccc(N5CCN(C(C)C)CC5)cc4)nc32)C1 [Example 120] was tested. Which “Tall-1 (pIC50)” value did it give?
Its value is “A (A represents a pIC50 value≥7.5 (IC50≤32 nM))”.

With C=CC(=O)N1C[C@H](C)N(CCn2c(=O)ccc3cnc(Nc4cnn(C)c4)nc32)C[C@@H]1C [Example 121] as the compound, how does the “Tall-1 (pIC50)” value read?
Its value is “C (C represents a pIC50 value between 6 and 6.7 (IC50 between 1 μM and 200 nM))”.
